Reference: ChEMBL document CHEMBL1201862, “PubChem BioAssay data set” (2004)
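1) Cells in 96-well plates. 2) Compound, 48 h, 5 concentrations. 3) Linear interpolation between surrounding doses. 4) Unreached endpoint = highest concentration. GI50 = concentration required for 50% inhibition of growth.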 Calls of active or inactive are those of the source. No stated cut-off is given here; in the data, active = GI50 up to about 1.1 µM and inactive = higher.

How the values were obtained:
Test in all cases: NCI anticancer screen, dose series, 48 h
MOLT-4 = test system: MOLT-4
A549 = test system: A549
UACC-257 = test system: UACC-257
K562 = test system: K562
HT-29 = test system: HT-29
M14 = test system: M14
CAKI-1 = test system: CAKI-1
RXF 393 = test system: RXF 393
OVCAR-5 = test system: OVCAR-5
IGROV-1 = test system: IGROV-1
HCT-15 = test system: HCT-15
NCI/ADR-RES = test system: NCI/ADR-RES
SF-268 = test system: SF-268
SR = test system: SR
LOX IMVI = test system: LOX IMVI
OVCAR-4 = test system: OVCAR-4
TK-10 = test system: TK-10
SNB-19 = test system: SNB-19
SF-539 = test system: SF-539
786-0 = test system: 786-0

| Structure (SMILES) | GI50 (MOLT-4) | GI50 (A549) | GI50 (UACC-257) | GI50 (K562) | GI50 (HT-29) | GI50 (M14) | GI50 (CAKI-1) | GI50 (RXF 393) | GI50 (OVCAR-5) | GI50 (IGROV-1) | GI50 (HCT-15) | GI50 (NCI/ADR-RES) | GI50 (SF-268) | GI50 (SR) | GI50 (LOX IMVI) | GI50 (OVCAR-4) | GI50 (TK-10) | GI50 (SNB-19) | GI50 (SF-539) | GI50 (786-0) |
| --- | --- | --- | --- | --- | --- | --- | --- | --- | --- | --- | --- | --- | --- | --- | --- | --- | --- | --- | --- | --- |
| Fc1ccc(C(OCCN2CCN(CCCc3ccccc3)CC2)c2ccc(F)cc2)cc1 | 4.26 µM (inactive) | 3.58 µM (inactive) | 2.81 µM (inactive) | 3.05 µM (inactive) | 3.13 µM (inactive) | 3.12 µM (inactive) | 4.06 µM (inactive) | 3.67 µM (inactive) | 4.5 µM (inactive) | 10.4 µM (inactive) | 3.45 µM | 3.13 µM (inactive) | 4.18 µM (inactive) | 2.71 µM (inactive) | 4.65 µM (inactive) | 4.15 µM (inactive) | 5.77 µM (inactive) | 3.99 µM (inactive) |  |  |
| O=C1c2ccccc2C(=O)c2c1sc1nc3ccccc3n21 | 1.97 µM (inactive) | 10.7 µM (inactive) | 1.88 µM (inactive) | 2.03 µM (inactive) | 3.9 µM (inactive) | 1.73 µM (inactive) | 1.99 µM (inactive) | 1.79 µM (inactive) | 2.45 µM (inactive) | 2.44 µM (inactive) | 1.36 µM | 1.77 µM (inactive) | 1.89 µM (inactive) | 3.53 µM (inactive) | 0.893 µM (active) |  | 4.19 µM (inactive) | 2.11 µM (inactive) | 1.81 µM (inactive) | 2.15 µM (inactive) |
| COc1ccc(C(=O)/C=C/S/C(=N/C#N)SC)cc1 | 5.77 µM (inactive) | > 100 µM (inactive) | 20.4 µM (inactive) | 10.7 µM (inactive) | 19.8 µM (inactive) | 18.3 µM (inactive) | 22.9 µM (inactive) | 18.2 µM (inactive) | 24 µM (inactive) | 21.8 µM (inactive) | 13.8 µM | 21.3 µM (inactive) | 25.8 µM (inactive) | 3.95 µM (inactive) |  | 58.9 µM (inactive) | 20.8 µM (inactive) | 19.5 µM (inactive) | 20 µM (inactive) | 19 µM (inactive) |
| COc1cc(OC)nc(-n2c(N)c(C(=O)O)c3ccc([N+](=O)[O-])cc3c2=O)n1 | > 100 µM (inactive) | > 100 µM (inactive) |  | > 100 µM (inactive) | > 100 µM (inactive) | > 100 µM (inactive) | > 100 µM (inactive) | > 100 µM (inactive) | > 100 µM (inactive) | 67.8 µM (inactive) | > 100 µM | > 100 µM (inactive) | > 100 µM (inactive) | > 100 µM (inactive) | > 100 µM (inactive) | > 100 µM (inactive) |  | > 100 µM (inactive) |  | > 100 µM (inactive) |
| COc1cccc(C(=O)C#Cc2cnc(OC)nc2OC)c1 | 0.155 µM (active) | 4.82 µM (inactive) | 2.15 µM (inactive) | 0.356 µM (active) | 1.09 µM (active) | 1.21 µM (inactive) | 1.99 µM (inactive) | 0.331 µM (active) | 2.91 µM (inactive) | 0.653 µM (active) | 0.2 µM | 1.85 µM (inactive) | 2.49 µM (inactive) | 0.108 µM (active) | 0.119 µM (active) | 2.36 µM (inactive) | 1.43 µM (inactive) | 15.8 µM (inactive) |  | 1.83 µM (inactive) |
| O=C(Nc1ccn(C2CC(O)C(COC(c3ccccc3)(c3ccccc3)c3ccccc3)O2)c(=O)n1)c1ccccc1 (centres undefined) | 2.16 µM (inactive) | 4.54 µM (inactive) | 12.7 µM (inactive) | 2.92 µM (inactive) | 1.71 µM (inactive) | 2.3 µM (inactive) | 6.32 µM (inactive) | 2.7 µM (inactive) | 1.87 µM (inactive) | 2.9 µM (inactive) | 2.59 µM | 2.46 µM (inactive) | 5.06 µM (inactive) | 2.44 µM (inactive) |  | 3.24 µM (inactive) |  | 3.77 µM (inactive) | 3.36 µM (inactive) | 1.98 µM (inactive) |
| OCC1=C[C@@](COCc2ccccc2)(OCc2ccccc2)[C@@H](OCc2ccccc2)[C@@H]1OCc1ccccc1 | 4.57 µM (inactive) | 10.5 µM (inactive) | 22.6 µM (inactive) | 10.6 µM (inactive) | 12.7 µM (inactive) | 23.9 µM (inactive) | 14.5 µM (inactive) | 3.64 µM (inactive) | 26.3 µM (inactive) | 7.01 µM (inactive) | 17.1 µM | 3.61 µM (inactive) | 11.6 µM (inactive) | 12.2 µM (inactive) | 7.31 µM (inactive) | 21.4 µM (inactive) | 21.3 µM (inactive) | 42.8 µM (inactive) |  | 20.7 µM (inactive) |
| COc1ccc(/C=C2/SC(c3ccccc3)N(NC(=O)CCCCCCCCC(=O)NN3C(=O)/C(=C\c4ccc(OC)c(OC)c4)SC3c3ccccc3)C2=O)cc1OC (centres undefined) | 19.7 µM (inactive) | > 100 µM (inactive) | 39.4 µM (inactive) | 6.59 µM (inactive) | 71.8 µM (inactive) | > 100 µM (inactive) | 53.6 µM (inactive) | 58.5 µM (inactive) | > 100 µM (inactive) | 1.03 µM (active) | 55.2 µM | 60.3 µM (inactive) | 69.3 µM (inactive) | 15.6 µM (inactive) |  | 76.7 µM (inactive) | > 100 µM (inactive) | 86.1 µM (inactive) | 24.6 µM (inactive) | 19.6 µM (inactive) |
| CCN(CC)CCNC(=O)c1cc2cc(NC(=O)c3cc4cc(NC(=O)c5cc6cc(N)ccc6[nH]5)ccc4[nH]3)ccc2[nH]1 | > 100 µM (inactive) | > 100 µM (inactive) | > 100 µM (inactive) | > 100 µM (inactive) | > 100 µM (inactive) | > 100 µM (inactive) | > 100 µM (inactive) | > 100 µM (inactive) | > 100 µM (inactive) | > 100 µM (inactive) | > 100 µM | > 100 µM (inactive) | > 100 µM (inactive) | > 100 µM (inactive) | > 100 µM (inactive) | > 100 µM (inactive) | > 100 µM (inactive) | > 100 µM (inactive) |  | > 100 µM (inactive) |
| COc1ccc(-c2nc(-c3cnccn3)n(Cc3ccccc3)n2)cc1 | > 100 µM (inactive) | > 100 µM (inactive) | > 100 µM (inactive) | > 100 µM (inactive) | > 100 µM (inactive) | > 100 µM (inactive) |  | > 100 µM (inactive) | > 100 µM (inactive) | > 100 µM (inactive) | > 100 µM | > 100 µM (inactive) | > 100 µM (inactive) | > 100 µM (inactive) | > 100 µM (inactive) | > 100 µM (inactive) |  | > 100 µM (inactive) | > 100 µM (inactive) | > 100 µM (inactive) |
| CCOc1cc(C=O)ccc1O [ETHYL VANILLIN] | > 100 µM (inactive) | > 100 µM (inactive) | > 100 µM (inactive) | > 100 µM (inactive) | > 100 µM (inactive) | > 100 µM (inactive) | > 100 µM (inactive) |  | > 100 µM (inactive) | > 100 µM (inactive) | > 100 µM | > 100 µM (inactive) | > 100 µM (inactive) | 76 µM (inactive) | > 100 µM (inactive) | > 100 µM (inactive) | > 100 µM (inactive) | > 100 µM (inactive) | > 100 µM (inactive) | > 100 µM (inactive) |
